Numbered stars: 1 amine (or outer) side, 2 acyl side, 3 side chain; on linkers, the order of the positions; unused ones are H or OH. Bridge positions count the residues as written; N and C are the ends. Square brackets hold non-standard residues; d marks the D form. Peptide text beside a SMILES is read from it. X1 = CC(C)CCCCCCCCC[C@H](CC(=O)[*:1])O[*:2]
Tested on: Trichophyton mentagrophytes
Assay type: cell-based

CC(C)CCCCCCCCC[C@@H]1CC(=O)N[C@@H](CCC(=O)O)C(=O)N[C@@H](CC(C)C)C(=O)N[C@H](CC(C)C)C(=O)N[C@@H](C(C)C)C(=O)N[C@@H](CC(=O)O)C(=O)N[C@H](CC(C)C)C(=O)N[C@@H](CC(C)C)C(=O)O1 [surfactin] (EL[dL]VD[dL]L; linker N-C via X1)
antifungal activity (growth inhibition of test microorganism): weaker than iturin A, but slight inhibitory activities

— US20130165635A1 (priority 2010, published 2013)
